Holding throughout (format): in vivo
The subject of experiment [1] is Abutilon theophrasti (ABUTH). The experiment is described as follows: Post-emergence test, glasshouse. Particulars: 250 g/ha. As for the experimental part: (§1) Seeds of a variety of test species are sown in standard soil in pots Amaranthus retoflexus (AMARE), Abutilon theophrasti (ABUTH), Setaria faberi (SETFA), Echinochloa crus-galli (ECHCG), Ipomoea hederacea (IPOHE)). After cultivation for one day (pre-emergence) or after 8 days cultivation (post-emergence) under controlled conditions in a glasshouse (at 24/16° C., day/night; 14 hours light; 65% humidity), the plants are sprayed with an aqueous spray solution derived from the formulation of the technical active ingredient in acetone/water (50:50) solution containing 0.5% Tween 20 (polyoxyethelyene sorbitan monolaurate, CAS RN 9005-64-5). Compounds are applied at 250 g/ha unless otherwise stated. The test plants are then grown in a glasshouse under controlled conditions in a glasshouse (at 24/16° C., day/night; 14 hours light; 65% humidity) and watered twice daily. After 13 days for pre and post-emergence, the test is evaluated for the percentage damage caused to the plant. The biological activities are shown in the following table on a five-point scale (5=81-100%; 4=61-80%; 3=41-60%; 2=21-40%; 1=0-20%).

Experiment [2] relates to Amaranthus retoflexus (AMARE). The experiment is described as follows: Post-emergence test, glasshouse. Particulars: 250 g/ha. The protocol:
as §1

Experiment [3] has as its system Echinochloa crus-galli (ECHCG). Put plainly: Post-emergence test, glasshouse. To be noted: 250 g/ha. As for the experimental part: as §1
Experiment [4] has as its system Setaria faberi (SETFA). Put plainly: Post-emergence test, glasshouse. Particulars: 250 g/ha. As for the experimental part: as §1
Experiment [5] relates to Abutilon theophrasti (ABUTH). The experiment is described as follows: Pre-emergence test, glasshouse. To be noted: 250 g/ha; for percentage damage caused to the plant, ABUTH: evaluated after 13 days, Table B2; for percentage damage caused to the plant, LABUTH: comparative test. The protocol:
as §1

Experiment [6] has as its system Ipomoea hederacea (IPOHE). The experiment is described as follows: Pre-emergence test, glasshouse. Particulars: 250 g/ha. The protocol: as §1
Experiment [7] concerns Amaranthus retoflexus (AMARE). The experiment is described as follows: Pre-emergence test, glasshouse. Particulars: 250 g/ha. The protocol: as §1
Experiment [8] relates to Echinochloa crus-galli (ECHCG). Put plainly: Pre-emergence test, glasshouse. To be noted: 250 g/ha. As for the experimental part: as §1
The subject of experiment [9] is Setaria faberi (SETFA). Put plainly: Pre-emergence test, glasshouse. To be noted: 250 g/ha. The protocol: as §1
Experiment [10] deals with Ipomoea hederacea (IPOHE). The experiment is described as follows: Post-emergence test, glasshouse. Particulars: 250 g/ha. The protocol: as §1
[11] abbreviates: evaluated after 13 days, Table B1.
The mark [12] stands for this setting: evaluated after 13 days, Table B2.

The values below come from patent publication US12522588B2, “Herbicidal compounds” (SYNGENTA CROP PROTECTION AG, priority 2020, dated 2026).

As for `FC(F)(F)c1ccc(-n2nc(C(F)(F)F)cc2Oc2ncc(Cl)cn2)cc1` [Compound 1.001, 5-chloro-2-[5-(trifluoromethyl)-2-[4-(trifluoromethyl)phenyl]pyrazol-3-yl]oxy-pyrimidine], the “percentage damage caused to the plant, ABUTH” value in experiment [1] (setting [11]) was 5 (5=81-100%); in experiment [1] (comparative test) it was 5 (5=81-100%); in [5], 4 (4=61-80%). The “percentage damage caused to the plant, AMARE” value in experiment [2] (setting [11]), in experiment [2] (comparative test), in experiment [7] (setting [12]) and in experiment [7] (comparative test) was 5 (5=81-100%) in each case. The “percentage damage caused to the plant, ECHCG” value in experiment [3] (setting [11]), in experiment [3] (comparative test), in experiment [8] (setting [12]) and in experiment [8] (comparative test) was 5 (5=81-100%) each time. Also, the “percentage damage caused to the plant, SETFA” value in the experiment on Setaria faberi (SETFA) [4] (setting [11]), in the experiment with Setaria faberi (SETFA) [4] (comparative test), in the experiment on Setaria faberi (SETFA) [9] (setting [12]) and in the experiment on Setaria faberi (SETFA) [9] (comparative test) was 5 (5=81-100%) throughout. Besides, the “percentage damage caused to the plant, LABUTH” value in experiment [5] is reported as 4 (4=61-80%). Moreover, the “percentage damage caused to the plant, IPOHE” value in experiment [6] (setting [12]) and in [6] (comparative test) was 5 (5=81-100%) in each case.

For the compound `FC(F)(F)c1cc(Oc2ncc(Cl)cn2)n(-c2ccc(Cl)cc2)n1` [Compound 1.002], the “percentage damage caused to the plant, ABUTH” value in experiment [1] (setting [11]) is 3 (3=41-60%); in experiment [1] (comparative test), 3 (3=41-60%); in experiment [5] it was 2 (2=21-40%). Moreover, the “percentage damage caused to the plant, IPOHE” value in [10] (setting [11]) was 4 (4=61-80%); in experiment [10] (comparative test), 4 (4=61-80%); in experiment [6] (setting [12]), 1 (1=0-20%); in experiment [6] (comparative test), 1 (1=0-20%). Moreover, the “percentage damage caused to the plant, AMARE” value in experiment [2] (setting [11]), in [2] (comparative test), in experiment [7] (setting [12]) and in experiment [7] (comparative test) was 5 (5=81-100%) each time. Also, the “percentage damage caused to the plant, ECHCG” value in experiment [3] (setting [11]), in experiment [3] (comparative test), in experiment [8] (setting [12]) and in experiment [8] (comparative test) was 5 (5=81-100%) throughout. Further, the “percentage damage caused to the plant, SETFA” value with Setaria faberi (SETFA) [4] (setting [11]), in the experiment on Setaria faberi (SETFA) [4] (comparative test), in the experiment on Setaria faberi (SETFA) [9] (setting [12]) and in the experiment with Setaria faberi (SETFA) [9] (comparative test) was 5 (5=81-100%) each time. The “percentage damage caused to the plant, LABUTH” value in experiment [5] is 2 (2=21-40%).

As to `Cc1cnc(Oc2cc(C(F)(F)F)nn2-c2ccc(C(F)(F)F)cc2)nc1` [Compound 1.020, 5-methyl-2-[5-(trifluoromethyl)-2-[4-(trifluoromethyl)phenyl]pyrazol-3-yl]oxy-pyrimidine], the “percentage damage caused to the plant, IPOHE” value is listed as 3 (3=41-60%) in experiment [10] (setting [11]) and 1 (1=0-20%) in experiment [6] (setting [12]). The “percentage damage caused to the plant, AMARE” value in [2] (setting [11]) and in experiment [7] (setting [12]) was 5 (5=81-100%) throughout. Also, the “percentage damage caused to the plant, ECHCG” value is reported as 4 (4=61-80%) in [3] (setting [11]) and 5 (5=81-100%) in experiment [8] (setting [12]). Moreover, the results for the “percentage damage caused to the plant, SETFA” value with Setaria faberi (SETFA) [4] (setting [11]) and with Setaria faberi (SETFA) [9] (setting [12]) were 4 (4=61-80%) and 5 (5=81-100%), respectively.

In the case of `Fc1cnc(Oc2cc(C(F)(F)F)nn2-c2ccc(C(F)(F)F)cc2)nc1` [Compound 1.021], the “percentage damage caused to the plant, IPOHE” value in experiment [10] (setting [11]) is 4 (4=61-80%); in experiment [6] (setting [12]) it was 2 (2=21-40%). Besides, the “percentage damage caused to the plant, AMARE” value is recorded as 4 (4=61-80%) in experiment [2] (setting [11]) and 5 (5=81-100%) in [7] (setting [12]). For the same compound, the “percentage damage caused to the plant, ECHCG” value in experiment [3] (setting [11]) and in [8] (setting [12]) was 5 (5=81-100%) in each case. Besides, the “percentage damage caused to the plant, SETFA” value is on record as 4 (4=61-80%) with Setaria faberi (SETFA) [4] (setting [11]) and 5 (5=81-100%) in the experiment with Setaria faberi (SETFA) [9] (setting [12]).

Regarding `Cc1ncc(-n2nc(C(F)(F)F)cc2Oc2ncc(Cl)cn2)cn1` [Compound 1.022, 5-chloro-2-[2-(2-methylpyrimidin-5-yl)-5-(trifluoromethyl)pyrazol-3-yl]oxy-pyrimidine], the “percentage damage caused to the plant, IPOHE” value in [10] (setting [11]) and in [6] (setting [12]) was 1 (1=0-20%) in each case. The “percentage damage caused to the plant, AMARE” value in experiment [2] (setting [11]) and in experiment [7] (setting [12]) was 5 (5=81-100%) in each case. Besides, the “percentage damage caused to the plant, ECHCG” value in experiment [3] (setting [11]) and in experiment [8] (setting [12]) was 4 (4=61-80%) in each case. Also, the results for the “percentage damage caused to the plant, SETFA” value in the experiment with Setaria faberi (SETFA) [4] (setting [11]) and with Setaria faberi (SETFA) [9] (setting [12]) were 4 (4=61-80%) and 5 (5=81-100%), respectively.

For `FC(F)Oc1ccc(-n2nc(C(F)(F)F)cc2Oc2ncc(Cl)cn2)cc1` [Compound 1.028], the “percentage damage caused to the plant, IPOHE” value in experiment [10] (setting [11]) and in experiment [6] (setting [12]) was 1 (1=0-20%) each time. Also, the “percentage damage caused to the plant, AMARE” value is 4 (4=61-80%) in experiment [2] (setting [11]) and 2 (2=21-40%) in [7] (setting [12]). For the same compound, the figures for the “percentage damage caused to the plant, ECHCG” value in experiment [3] (setting [11]) and in experiment [8] (setting [12]) were 2 (2=21-40%) and 1 (1=0-20%), respectively. Besides, the “percentage damage caused to the plant, SETFA” value in the experiment on Setaria faberi (SETFA) [4] (setting [11]) and in the experiment with Setaria faberi (SETFA) [9] (setting [12]) was 2 (2=21-40%) throughout.

`Cc1ccc(-n2nc(C(F)(F)F)cc2Oc2ncc(Cl)cn2)cc1` [Compound 1.029]: the “percentage damage caused to the plant, IPOHE” value is on record as 2 (2=21-40%) in experiment [10] (setting [11]) and 1 (1=0-20%) in [6] (setting [12]). Further, the “percentage damage caused to the plant, AMARE” value in [2] (setting [11]) is 4 (4=61-80%); in experiment [7] (setting [12]), 3 (3=41-60%). For the same compound, the “percentage damage caused to the plant, ECHCG” value in [3] (setting [11]) is 2 (2=21-40%); in experiment [8] (setting [12]), 4 (4=61-80%). Besides, the results for the “percentage damage caused to the plant, SETFA” value with Setaria faberi (SETFA) [4] (setting [11]) and in the experiment with Setaria faberi (SETFA) [9] (setting [12]) were 2 (2=21-40%) and 4 (4=61-80%), respectively.

With `Fc1ccccc1-n1nc(C(F)(F)F)cc1Oc1ncc(Cl)cn1` [Compound 1.033], the “percentage damage caused to the plant, IPOHE” value in experiment [10] (setting [11]) and in experiment [6] (setting [12]) was 1 (1=0-20%) throughout. Moreover, the “percentage damage caused to the plant, AMARE” value in experiment [2] (setting [11]) is listed as 3 (3=41-60%); in [7] (setting [12]) it was 2 (2=21-40%). Further, the “percentage damage caused to the plant, ECHCG” value in experiment [3] (setting [11]) and in [8] (setting [12]) was 1 (1=0-20%) in each case. Further, the “percentage damage caused to the plant, SETFA” value in the experiment with Setaria faberi (SETFA) [4] (setting [11]) and in the experiment on Setaria faberi (SETFA) [9] (setting [12]) was 1 (1=0-20%) throughout.

Turning to `FC(F)(F)c1ccc(-n2nc(C(F)(F)F)cc2Oc2ncc(Br)cn2)cc1` [Compound 1.036, 5-bromo-2-[5-(trifluoromethyl)-2-[4-(trifluoromethyl)phenyl]pyrazol-3-yl]oxy-pyrimidine], the “percentage damage caused to the plant, IPOHE” value in experiment [10] (setting [11]) was 2 (2=21-40%); in experiment [6] (setting [12]) it was 1 (1=0-20%). The “percentage damage caused to the plant, AMARE” value was 4 (4=61-80%) in [2] (setting [11]) and 3 (3=41-60%) in experiment [7] (setting [12]). In addition, the “percentage damage caused to the plant, ECHCG” value is reported as 1 (1=0-20%) in experiment [3] (setting [11]) and 4 (4=61-80%) in [8] (setting [12]). In addition, the “percentage damage caused to the plant, SETFA” value in the experiment on Setaria faberi (SETFA) [4] (setting [11]) was 1 (1=0-20%); in the experiment with Setaria faberi (SETFA) [9] (setting [12]) it was 4 (4=61-80%).

As for `Cc1cc(Oc2ncc(Cl)cn2)n(-c2ccc(C(F)(F)F)cc2)n1` [Compound C1, reference compound], the “percentage damage caused to the plant, ABUTH” value in experiment [1] (comparative test) is recorded as 2 (2=21-40%). Moreover, the “percentage damage caused to the plant, IPOHE” value in experiment [10] (comparative test) and in experiment [6] (comparative test) was 1 (1=0-20%) in each case. Besides, the “percentage damage caused to the plant, AMARE” value in [2] (comparative test) was 4 (4=61-80%). Also, the “percentage damage caused to the plant, ECHCG” value in experiment [3] (comparative test) and in experiment [8] (comparative test) was 1 (1=0-20%) each time. Further, the “percentage damage caused to the plant, SETFA” value in the experiment on Setaria faberi (SETFA) [4] (comparative test) and in the experiment with Setaria faberi (SETFA) [9] (comparative test) was 2 (2=21-40%) in each case. Moreover, the “percentage damage caused to the plant, LABUTH” value in [5] is recorded as 1 (1=0-20%).
